Data reported in patent publication US5541181A, “Compound produced by a strain of micromonospora” (Bristol-Myers Squibb Company, priority 1994, dated 1996).
pIC50: −log10 of the molar value. In brackets after ≈: the same amount, converted by molar mass. Where two headings read alike, the source gives them in different places.

Columns and labels:
[1] = tested on: Moser cells; experiment: In vitro cytotoxicity, Moser (human colorectal carcinoma), neutral red, 72 hours; type: cell-based
Method: (§1) In Vitro Cytoxicity. B16-F10 (murine melanoma) and Moser (human colorectal carcinoma) were grown in Eagle's minimum essential medium (Nissui) supplement with fetal calf serum (FCS, 10%) and kanamycin (60 μg/ml), HCT-116 (human colon carcinoma) cells were grown in McCoy's 5A Medium (Gibco) supplemented with FCS (10%), penicillin (100 u/ml) and streptomycin (100 μg/ml), and K562 (human myelogenous leukemia) were in RPM 11640 medium supplemented with FCS (10%), penicillin (100 u/ml) and streptomycin (100 μg/ml) at 37° C. under humidified atmosphere in a CO2 incubator. The exponentially growing B16-F10, Moser, K562 and HCT-116 cells were harvested, counted and suspended in the culture media at 1.5×10^4, 6×10^4, 3×10^4 and 8×10^4 cells/ml, respectively. The test materials were planted into the wells of 96 or 24-well tissue culture plate and for 72 hours. The cytotoxic activities were colorimetrically determined at 540 nm after staining viable cells with neutral red solution.

[2] = tested on: B16-F10 cells; experiment: In vitro cytotoxicity, B16-F10 (murine melanoma), neutral red, 72 hours; type: cell-based; settings: for IC50: Mus musculus, B16-F10, 72 hours; for cytotoxicity: B16-F10, compared with BU-4664L
Method: as §1

[3] = target: T1, 5-lipoxygenase (5-LPO) (Rattus norvegicus, UniProt P12527); experiment: 5-Lipoxygenase (5-LPO) inhibitory activity: 5-HETE produced in a cell-free extract of rat basophilic leukemia (RBL-1) cells; type: biochemical
T1 construct: produced in a cell-free extract of rat basophilic leukemia cells (RBL-1 cells, ATCC CRL 1378); endogenous in cells; host or cells: RBL-1 cells (rat basophilic leukemia), ATCC CRL 1378; cell-free extract
T1 sequence (P12527 1-673): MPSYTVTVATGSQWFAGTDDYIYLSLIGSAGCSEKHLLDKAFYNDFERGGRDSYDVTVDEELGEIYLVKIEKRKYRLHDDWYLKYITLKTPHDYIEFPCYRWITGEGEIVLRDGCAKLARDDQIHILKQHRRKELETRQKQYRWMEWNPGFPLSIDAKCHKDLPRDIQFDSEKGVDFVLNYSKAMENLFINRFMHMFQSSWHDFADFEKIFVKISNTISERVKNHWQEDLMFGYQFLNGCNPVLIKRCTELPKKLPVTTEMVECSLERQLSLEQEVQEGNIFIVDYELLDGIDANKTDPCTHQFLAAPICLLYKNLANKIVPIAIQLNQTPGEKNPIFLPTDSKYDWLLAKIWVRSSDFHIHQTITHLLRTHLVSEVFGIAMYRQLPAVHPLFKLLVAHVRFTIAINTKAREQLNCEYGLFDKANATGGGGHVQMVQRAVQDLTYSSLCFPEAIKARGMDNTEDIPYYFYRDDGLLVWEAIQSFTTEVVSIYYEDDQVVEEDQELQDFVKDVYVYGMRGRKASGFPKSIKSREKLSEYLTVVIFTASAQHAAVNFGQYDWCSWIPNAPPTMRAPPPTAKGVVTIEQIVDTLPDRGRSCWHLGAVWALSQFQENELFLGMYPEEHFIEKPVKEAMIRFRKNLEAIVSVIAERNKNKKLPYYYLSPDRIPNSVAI
Method: 20-Jar Fermentation. A 5-ml portion of the seed culture was transferred into a 500-ml Erlenmeyer flask containing 100 ml of the seed medium described above. Fermentation was carried out for 3 days at 28° C. and 200 rpm. This seed culture (500 ml) was inoculated into a 20-liter jar fermentor containing 12 liters of the production medium composed of soluble starch 2%, Pharmamedia (Trader's Protein) 1%, yeast extract 0.2%, ZnSO4 ·7H2 O 0.003% and CaCO3 0.4% (pH 7.0) and fermented for 3 days under the following conditions: temperature, 28° C.; aeration, 10 liters/minute; internal pressure, 0.5 kg/cm^2; agitation, 250 rpm. For preparation of an assay sample, a 3-ml of the whole broth was extracted with the same volume of n-butanol. After centrifugation, the solvent layer was evaporated to dryness and dissolved into the same volume of 10% dimethylsulfoxide (DMSO) solution. The solution was used as an assay sample.

[4] = tested on: K562 cells; experiment: In vitro cytotoxicity, K562 (human myelogenous leukemia), neutral red, 72 hours; type: cell-based; settings: K562, 72 hours
Method: as §1

[5] = Solubility; type: physicochemical
[6] = tested on: B16 melanoma; type: in vivo, mouse; settings: ip; for MST (Median survival time) / T/C: Q4D × 3; for Avg Weight change on day 5: mouse, in vivo
Method: (§2) B16 melanoma was intraperitoneally (ip) inoculated with 0.5 ml of 10% brei per male BDF1 mouse, and P388 leukemia intraperitoneally inoculated with 10^6 cells per female CDF1 mouse. The test materials were intraperitoneally administered to the tumor-bearing mice by the following treatment schedules: once daily on days 1 to 3 (Q1D×3), once a day on days 1, 4, and 7 (Q3D×3) and once a day on days 1, 5 and 9 (Q4D×3).
(§3) The in vivo antitumor activity was determined in tumor-bearing mice.

[7] = tested on: P388 leukemia; type: in vivo, mouse; settings: ip; for T/C: ≥ 125 significantly active; for Avg Weight change on day 4: mouse, in vivo
Method: as §2, §3

[8] = tested on: HCT-116 cells; experiment: In vitro cytotoxicity, HCT-116 (human colon carcinoma), neutral red, 72 hours; type: cell-based; settings: for IC50: Homo sapiens, HCT-116, 72 hours; for cytotoxicity: HCT-116, compared with BU-4664L
Method: as §1

[9] = tested on: K562, B16-F10 and Moser cells; experiment: In vitro cytotoxicity, range over K562, B16-F10 and Moser; type: cell-based, murine and human; settings: vs K562, B16-F10 and Moser; read-out: IC50 (inhibited growth of tumor cell lines), range
Method: as §1

[10] = Table 8, rat 5-LPO, read-out: IC50 (5-Lipoxygenase Inhibitory Activity)

## CC(C)=CCC/C(C)=C/CC/C(C)=C/CN1c2cc(O)cc(O)c2NC(=O)c2cccc(O)c21 [BU-4664L, 5-farnesyl-4,7,9-trihydroxy dibenzo[b,e][1,4]diazepin-11-one]
[1]
  IC50: 18 µg/mL (≈ 38.9 µM)
[2]
  IC50: 1.9 µg/mL (≈ 4.11 µM)
[3]; rat 5-LPO
  5-LPO inhibitory activity: good 5-LPO inhibitory activity
[3]; rat 5-LPO, read-out: IC50 (5-LPO inhibitory activity)
  pIC50: 5.77
[4]
  IC50: 1.1 µg/mL (≈ 2.38 µM)
[5]; chloroform
  solubility: slightly soluble
[5]; dimethyl sulfoxide
  solubility: soluble
[5]; ethanol
  solubility: soluble
[5]; ethyl acetate
  solubility: soluble
[5]; methanol
  solubility: soluble
[5]; n-hexane
  solubility: insoluble
[5]; water
  solubility: insoluble
[6]
  survival time of mice inoculated with B16 melanoma: significant prolongation of the survival time
[6]; 3 mg/kg/day
  MST (Median survival time): 16.5 days
  T/C: 127%
  Avg Weight change on day 5: +0.3 g
[6]; 10 mg/kg/day
  MST (Median survival time): 17.5 days
  T/C: 135%
  Avg Weight change on day 5: +0.3 g
[6]; 30 mg/kg/day
  MST (Median survival time): 17.0 days
  T/C: 131%
  Avg Weight change on day 5: -0.8 g
[6]; compared with Mitomycin C
  activity against B16 melanoma in terms of minimum effective dose: weaker than Mitomycin C
[7]
  T/C values against P388 leukemia: good T/C values
  survival time of mice inoculated with P388: significant prolongation of the survival time
[7]; 0.3 mg/kg/day, Q1D × 3
  MST (Median survival time): 12.0 days
  T/C: 120%
[7]; 1 mg/kg/day, Q1D × 3
  MST (Median survival time): 11.0 days
  T/C: 110%
[7]; 1 mg/kg/day, Q3D × 3
  MST (Median survival time): 11.9 days
  T/C: 119%
[7]; 3 mg/kg/day, Q1D × 3
  MST (Median survival time): 13.0 days
  T/C: 130%
[7]; 3 mg/kg/day, Q3D × 3
  MST (Median survival time): 15.2 days
  T/C: 152%
[7]; 10 mg/kg/day, Q1D × 3
  MST (Median survival time): 15.0 days
  T/C: 150%
[7]; 10 mg/kg/day, Q3D × 3
  MST (Median survival time): 16.2 days
  T/C: 162%
[7]; 30 mg/kg/day, Q1D × 3
  MST (Median survival time): 16.0 days
  T/C: 160%
[7]; 30 mg/kg/day, Q3D × 3
  MST (Median survival time): 12.5 days
  T/C: 152%
[7]; 0.3 mg/kg/day
  Avg Weight change on day 4: +0.5 g
[8]
  IC50: 2.6 µg/mL (≈ 5.62 µM)
[9]
  IC50: 1.1 to 18 µg/mL (≈ 2.38 to 38.9 µM)

## CO[C@@]12[C@H](COC(N)=O)C3=C(C(=O)C(C)=C(N)C3=O)N1C[C@@H]1N[C@@H]12 [Mitomycin C, reference compound]
[6]; 0.5 mg/kg/day
  MST (Median survival time): 16.0 days
  T/C: 123%
  Avg Weight change on day 5: +0.8 g
[6]; 1 mg/kg/day
  MST (Median survival time): 22.5 days
  T/C: 173%
  Avg Weight change on day 5: +0.5 g
[6]; 2 mg/kg/day
  MST (Median survival time): 26.7 days
  T/C: 204%
  Avg Weight change on day 5: +0.3 g
[7]; 0.3 mg/kg/day, Q1D × 3
  MST (Median survival time): 12.5 days
  T/C: 119%
[7]; 1 mg/kg/day, Q1D × 3
  MST (Median survival time): 16.0 days
  T/C: 152%
[7]; 3 mg/kg/day, Q1D × 3
  MST (Median survival time): 21.0 days
  T/C: 200%
[7]; 0.3 mg/kg/day
  Avg Weight change on day 4: +0.3 g
[7]; 1 mg/kg/day
  Avg Weight change on day 4: 0.0 g
[7]; 3 mg/kg/day
  Avg Weight change on day 4: -1.5 g

## CC(=O)Oc1cc(OC(C)=O)c2c(c1)N(C/C=C(\C)CC/C=C(\C)CCC=C(C)C)c1c(OC(C)=O)cccc1C(=O)N2 [Triacetyl BU-4664L]
[2]
  cytotoxicity: weaker cytotoxicity
  IC50: 2.4 µg/mL (≈ 4.08 µM)
[3]; [10]
  pIC50: < 4.47
[3]; rat 5-LPO
  5-LPO inhibitory activity: seemed to be devoid of 5-LPO inhibitory activity
[8]
  cytotoxicity: weaker cytotoxicity
  IC50: 4.4 µg/mL (≈ 7.47 µM)

## COc1cc(OC)c2c(c1)N(C/C=C(\C)CC/C=C(\C)CCC=C(C)C)c1c(OC)cccc1C(=O)N2 [Trimethyl BU-4664L]
[2]
  cytotoxicity: weaker cytotoxicity
  IC50: 21 µg/mL (≈ 41.6 µM)
[3]; [10]
  pIC50: < 4.40
[3]; rat 5-LPO
  5-LPO inhibitory activity: seemed to be devoid of 5-LPO inhibitory activity
[8]
  cytotoxicity: weaker cytotoxicity
  IC50: 12.5 µg/mL (≈ 24.8 µM)
